melting point | SMILES
136 to 140 °C | CC(C)=CC1CNC(=O)C1C(=O)Nc1ccccc1F (centres unmarked) [Compound 1011]
98 to 102 °C | C=C(C)c1cccc([C@H]2CN(C)C(=O)[C@@H]2C(=O)Nc2ccc(F)c(F)c2F)c1 [Compound 1087]

Source: patent US12077503B2, “Substituted cyclic amides and their use as herbicides” (FMC CORPORATION, priority 2015, dated 2024)
